From patent US8716231B2, “Use of benzo-fused heterocycle sulfamide derivatives for the treatment of pain” (Janssen Pharmaceutica NV, priority 2005, dated 2014) come the findings set out here.

Several values for one entry are separate records, joined by “and”; a condition that tells them apart may be missing. Equal entries are not always repeated.

Test [1] relates to mechanical (tactile) allodynia after L5 nerve ligation. Nature of the test: Rat Chung Model of Neuropathic Pain (Example 14). The format is in vivo, Sprague Dawley rats. An excerpt:
The rat Chung model is an assay used in determining whether a compound is useful for the treatment of neuropathic pain (Kim and Chung, 1994; Chaplan et al., 1994).
In this study, male Sprague Dawley rats (145-165 g; Harlan) were anesthetized and the L5 nerve was isolated and ligated with silk suture material resulting in mechanical allodynia. […] The results were normalized and results are presented as % MPE ([…]) of the drug.

The subject of test [2] is tactile allodynia in L5 SNL rats (von Frey withdrawal threshold). As to the kind of experiment: Lumbar 5 (L5) Spinal Nerve Ligation (Chung) Model of Neuropathic Pain, Studies A-D. Particulars: for withdrawal thresholds: 2 hrs, 4 hrs and 6 hrs after oral administration. The format is in vivo, Sprague-Dawley rats. The text has this: The rat Chung model is an assay used in determining whether a compound is useful for the treatment of neuropathic pain (Kim and Chung, 1994; Chaplan et al., 1994). In this assay, injury to the sciatic nerve by loose ligation with chromic gut suture, tight ligation of the L5 spinal nerve with silk suture or partial tight ligation with silk suture each produces hypersensitivity to many stimulus modalities (e.g., touch, pressure, temperature) that lasts for weeks or months. Hypersensitivity produced by such injuries is reminiscent of allodynia and hyperalgesia observed in clinical conditions of neuropathic pain caused by mechanical nerve injury, diabetes and chemotherapy. This assay is predictive of analgesic, antiallodynic and/or antihyperalgesic effect of test compounds.
Test compound and controls were dissolved in the appropriate volume of 0.5% HPMC or 10% solutol in 0.5% hydoxypropyl methylcellulose (HPMC). HPMC served as the vehicle for preparation of gabapentin solutions used as the positive control. Solutions were prepared to provide the final dose in a volume of 2.5 mL/kg or 5 mL/kg p.o. for rats. Male, Sprague-Dawley rats from Harlan Industries (Indianapolis, Ind.), weighing 150 to 250 grams at the time of surgery, were used for L5 SNL studies.
Rats in the SNL studies were housed and tested in the same room. Animals were housed in micro-isolator cages in groups of four rats per cage or 5 mice per cage with corncob bedding and free access to food and water. The environment was maintained at a constant temperature of 21° C., with a 12-hour light/dark cycle. Rats undergoing L5 SNL surgery were placed into individual housing cages with alpha dry bedding and had access to enrichment food, food pellets and water ad libitum. Animals were allowed four to six weeks recovery from surgery prior to testing and were not tested beyond eight weeks post-surgery. For L5 SNL testing, only those animals that responded to less than 4 gr force were included in further testing and analysis, being randomized into treatment groups on the day of study. In all tests, the investigator performing the behavioral analysis was blinded to the treatment administered to any individual animal.
For L5 SNL surgery, rats were induced and maintained on isoflurane inhalation anesthesia. A 2-cm skin incision was made just left of midline over the dorsal aspect of the L4-S2 spinal segments, followed by separation of the paraspinal muscles from spinous processes. The transverse process of L6 was then carefully removed and the L5 spinal nerve was identified. The left L5 spinal nerve was then ligated tightly with 6-0 silk thread, the muscle was sutured with 4-0 vicryl, and the skin was closed with wound clips.
Behavioral testing was performed on L5SNL rats at a time between 3-6 weeks post-ligation. […] Tactile allodynia was quantified at 30 min, 1 hr, 2 hrs, 4 hrs, 6 hrs, 8 hrs and/or 24 hr post-dosing by recording the force at which the paw ipsilateral to the nerve ligation was withdrawn from the application of a series of calibrated von Frey filaments (0.4, 0.7, 1.2, 2.0, 3.6, 5.5, 8.5 and 15.1 g; Stoelting; Wood Dale, Ill.). Beginning at an intermediate stiffness (2.0 g), filaments were applied to the mid-plantar hind paw for approximately 5 seconds. A brisk paw withdrawal led to the presentation of the next lighter stimulus and the lack of a withdrawal response led to the presentation of the next stronger stimulus to determine the response threshold. A total of four responses after the first threshold detection were collected. The 50% withdrawal thresholds were interpolated by the method of Dixon (as described in Meert T F and Vermeirsch, H A, Pharmacol. Biochem. Behav.; 2005, 80(2), pp 309-326) and when response thresholds fell above or below the range of detection, respective values of 15.0 or 0.25 g were assigned. […]

Test [3] concerns acetic acid-induced abdominal stretching. As to the kind of experiment: Acetic Acid-induced Abdominal Constriction Model of Visceral Pain. Type of test: in vivo, CD-1 mice. Particulars: 560 mg/kg oral; for number of abdominal stretches: not statistically significant (vehicle 13 to 16.2). As for the experimental part:
The purpose of this assay was to determine whether Compound #8 reverses hypersensitivity in visceral, inflammatory and neuropathic models of pain.
Test compound and controls were dissolved in the appropriate volume of 0.5% HPMC or 10% solutol in 0.5% hydoxypropyl methylcellulose (HPMC). HPMC served as the vehicle for preparation of gabapentin solutions used as the positive control. Solutions were prepared to provide the final dose in a volume of 10 mL/kg orally (p.o.) for mice. Male CD-1 mice from Charles Rivers Laboratories (Portage, Me.), weighing between 25 and 30 grams at the time of study, were used for the acetic acid-induced abdominal stretching studies.
Mice in the acetic acid-induced abdominal stretching study were allowed 1 hr to acclimate to the testing room before the start of the study. Animals were housed in micro-isolator cages in groups of four rats per cage or 5 mice per cage with corncob bedding and free access to food and water. The environment was maintained at a constant temperature of 21° C., with a 12-hour light/dark cycle.
Animals used in the acetic acid-induced abdominal stretching test were maintained with original cage mates throughout the study period (four rats per cage, 5 mice per cage; cages were Nalgene® with corn cob bedding). Animals from several cages were randomly assigned across treatment groups; that is, mice in a given cage were pseudo-randomly assigned to different treatment groups. In all tests, the investigator performing the behavioral analysis was blinded to the treatment administered to any individual animal.
Mice were then given an i.p injection of 0.5 mL (2×0.25 mL/abdominal quadrant) of 0.6% acetic acid following 1 hr, 2 hrs, 3 hrs or 4 hours treatment with vehicle, compound or positive control. Five minutes after i.p acetic acid injection, 5 animals were placed into separate bell jars containing a small amount of bedding chips, and the number of abdominal stretches per animal was recorded for 5 minutes. This was repeated for each group (N=10 mice/group). […]

For `NS(=O)(=O)NC[C@H]1COc2cc(Cl)ccc2O1` [Compound #8, (2S)-(−)-N-(6-Chloro-2,3-dihydro-benzo[1,4]dioxin-2-ylmethyl)-sulfamide], in test [1] (120 mg/kg p.o.), the “time at which efficacy peaked” value came to 1 h, the “time at which efficacy was observed” value came to 30 min and the “time post-dosing at which efficacy was sustained” value is 4 h. In test [1] (240 mg/kg, po), the “time at which efficacy peaked” value lay within 2 to 4 h, the “time at which efficacy was observed” value came to 30 min and the “time post-dosing at which efficacy was sustained” value is listed as 24 h. The “% reversal (withdrawal threshold)” value in test [2] (Study A, 120 mg/kg oral, 1 hr) turned out to be 42.2±13.8%. Further, the “% reversal (withdrawal threshold)” value in test [2] (Study A, 120 mg/kg oral, 4 hrs) worked out at 45.4±12.2%. The “% change (withdrawal threshold)” value in test [2] (Study A, 240 mg/kg, 4 hr) is recorded as 65.6±21.1%. For the same compound, in test [2] (Study A), the withdrawal thresholds result is “significantly increased withdrawal thresholds”. In test [2] (Study B, first administration (Day 1), 480 mg/kg, 4 hrs after dosing, three weeks after surgery), the “reversal in tactile hypersensitivity, peak effect” value came to 64.3±9.9%. The “reversal in tactile hypersensitivity” value in test [2] (Study B, first administration, other treatment groups (60, 120, 240 mg/kg)) is “No significant differences were observed”. The “reversal of tactile hypersensitivity” value in test [2] (Study B, third and seventh day of daily dosing, 60-480 mg/kg) is “none of the treatment groups exhibited a significant reversal of tactile hypersensitivity”. In addition, the “effect on mechanical allodynia” value in test [2] (Study C, 100 mg/kg, 300 mg/kg or 560 mg/kg, p.o., 4 weeks after surgery) is reported as “did not show a statistically significant effect up to 6 hrs”. In test [2] (Study D, 560 mg/kg p.o. in 10% solutol in HPMC, four weeks after surgery), the “decrease in mechanical allodynia” value was “showed a decrease in mechanical allodynia at 4 hrs and 6 hrs post dosing, but with a p=0.054”. For the same compound, the “effect on acetic acid-induced stretching” value in test [3] (compared with vehicle- or gabapentin-treated mice) is reported as “did not significantly modify acetic acid-induced stretching”.

Consider `NCC1(CC(=O)O)CCCCC1` [gabapentin, reference compound], for which the “effect of positive control on mechanical allodynia” value in test [1] (480 mg/kg p.o.) is “equivalent to the activity measured for Compound #8 at 240 mg/kg dosing”. The “% reversal (withdrawal threshold)” value is 73.2±14.7% in test [2] (Study A, 480 mg/kg, 2 hrs post-dosing, six weeks after surgery); 73.7±16.6% and 73.4±15.2% in test [2] (Study A, 480 mg/kg, 4 hrs post-dosing, six weeks after surgery, 480 mg/kg). Moreover, in test [2] (Study A), the withdrawal thresholds entry is recorded as “significantly increased withdrawal thresholds”. The “% reversal of mechanical allodynia relative to baseline” value amounted to 58.7% in test [2] (Study C, 560 mg/kg, 2 hrs post dosing) and 86.4% in test [2] (Study C, 560 mg/kg, 4 hrs post dosing). The “decrease in mechanical allodynia relative to baseline” value in test [2] (Study C, 560 mg/kg, 6 hrs post dosing) is “not at 6 hrs post dosing”. Also, the entries for the “number of abdominal stretches” value in test [3] (2 hr after administration) and in test [3] (3 hr after administration) were 11.00±1.5 stretches and 10.0±1.6 stretches, respectively.
